{"source": "patent US11839614B2", "about": "“Methods for treating or mitigating cardiotoxicity characterized by inhibition of adenosine A2 signaling and/or adenosine A2 receptor expression” (INTRA-CELLULAR THERAPIES, INC., priority 2018, dated 2023)", "test_system": "normal and failing canine hearts", "experiment": "Conscious dog pressure-volume hemodynamic analysis, normal and failing hearts", "assay_type": "in vivo", "text": "Dogs are studied in the conscious state before and after inducing dilated cardiomyopathy by tachypacing for two weeks at 200 bpm. […]\nLoad insensitive indexes of contractility (dP/dtmax/IP and PRSW) increased.", "key": {"[1]": {"settings": "control and HF dogs, 10 mg/kg oral, two hours"}}}
{"smiles": "CN1C(=O)c2c(nn(Cc3ccc(-c4cccc(F)n4)cc3)c2Nc2ccccc2)N2C1=N[C@@H]1CCC[C@@H]12", "note": "[Compound 1, (6aR,9aS)-2-(4-(6-fluoropyridin-2-yl)benzyl)-5-methyl-3-(phenyl-amino)-5,6a,7,8,9,9a-hexahydrocyclopenta-[4,5]imidazo[1,2-a]pyrazolo[4,3-e]pyrimidin-4-(2H)-one monophosphate]", "values": [{"measurement": "hemodynamic responses in all but heart rate", "setting": "0.01 mg/kg i.v.", "value": "negligible"}, {"measurement": "hemodynamic responses", "setting": "0.1 mg/kg i.v.", "value": "positive chronotropic, inotropic, lusitropic, and vasodilator responses were observed"}, {"measurement": "PV loop area (stroke work) and contractility", "setting": "10 mg/kg Compound 1 added to 10 μg/kg/min dobutamine, control and failing hearts", "value": "further enhanced both"}, {"measurement": "increase in heart rate", "setting": "HF animals, 10 mg/kg oral", "value": "blunted"}, {"measurement": "augmentation of cardiac output", "setting": "HF dogs, 10 mg/kg oral, two hours", "value": 32, "unit": "%"}, {"measurement": "LV preload (end-diastolic volume) or systolic pressure", "setting": "[1]", "value": "little change"}, {"measurement": "contractility (end-systolic elastance)", "setting": "[1]", "value": "increase in contractility"}, {"measurement": "augmentation of cardiac output", "setting": "control dogs, 10 mg/kg oral, two hours", "value": 50, "unit": "%"}, {"measurement": "inotropy, lusitropy and vasodilation", "setting": "heart failure dogs, 0.1 mg/kg i.v.", "value": "remained significantly improved"}, {"measurement": "time to peak hemodynamic response", "setting": "intravenous, normal and HF dogs", "value": "5 to 10", "unit": "min"}, {"measurement": "heart rate", "setting": "normal dogs, 10 mg/kg oral", "value": "increased heart rate"}, {"measurement": "relaxation (dP/dtmin and relaxation time constant tau)", "setting": "normal dogs, 10 mg/kg oral", "value": "improved"}, {"measurement": "systemic vascular resistance", "setting": "normal dogs, 10 mg/kg oral", "value": "reduced systemic vascular resistance"}, {"measurement": "systolic blood pressure", "setting": "normal dogs, 10 mg/kg oral", "value": "without altering systolic blood pressure"}]}
